# Biological target: T1, human P2Y12 receptor (Homo sapiens, UniProt Q9H244)
# T1 construct: expressed in transfected cells; host or cells: Chinese Hamster Ovary (CHO) cells
# Assay: P2Y12 receptor binding assay
# Conditions: CHO cells with recombinant expression of the human P2Y12 receptor; tritium-labeled 2-methyl-S-ADP; RT, 2 hours
# Protocol: P2Y12 Receptor Binding Assay
# Chinese Hamster Ovary (CHO) cells with recombinant expression of the human P2Y12 receptor were cultured in 24 well cell-culture plates. Cells were washed three times with binding buffer (50 mM Tris pH 7.4, 100 mM NaCl, 1 mM EDTA, 0.5% BSA). The cells were then incubated with 0.5 ml per well binding buffer containing tritium-labeled 2-methyl-thio-adenosine 5′-diphosphate (2-methyl-S-ADP) (between 100,000 and 300,000 dpm per well) and various concentrations of test compounds. After incubation at RT for 2 hours, cells were washed three times with binding buffer. Then, cells were solubilized by addition of 0.5 ml solubilization buffer (SDS, NaOH, EDTA). The content of each well was then transferred into beta-counter vials and 2.0 ml of Ultima Gold Scintillation liquid was added.
# T1 sequence (Q9H244 whole entry): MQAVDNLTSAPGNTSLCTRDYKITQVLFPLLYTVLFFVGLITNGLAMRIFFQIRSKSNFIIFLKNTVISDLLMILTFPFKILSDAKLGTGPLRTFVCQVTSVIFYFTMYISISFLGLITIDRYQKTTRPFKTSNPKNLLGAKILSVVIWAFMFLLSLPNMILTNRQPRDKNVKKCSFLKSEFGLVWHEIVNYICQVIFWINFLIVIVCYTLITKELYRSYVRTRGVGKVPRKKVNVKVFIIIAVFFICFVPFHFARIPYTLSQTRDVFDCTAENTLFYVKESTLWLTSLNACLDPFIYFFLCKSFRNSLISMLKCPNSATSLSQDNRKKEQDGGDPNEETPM
row,SMILES,IC50 [nM]
1,"CCCCOC(=O)N1CCN(C(=O)[C@H](CCC(=O)O)NC(=O)c2cc(N3C[C@@H]4[C@H](C3)[C@H]4C(=O)O)nc(-c3ccccc3)n2)CC1 [Example 1, (1α,5α,6α)-3-{6-[(S)-1-(4-Butoxycarbonyl-piperazine-1-carbonyl)-3-carboxy-propylcarbamoyl]-2-phenyl-pyrimidin-4-yl}-3-aza-bicyclo[3.1.0]hexane-6-carboxylic acid]",10
2,"CCCCOC(=O)N1CCN(C(=O)[C@H](CCC(=O)O)NC(=O)c2cc(N3C[C@@H]4[C@H](C3)[C@@H]4C(=O)O)nc(-c3ccccc3)n2)CC1 [Example 2, (1α,5α,6β)-3-{6-[(S)-1-(4-Butoxycarbonyl-piperazine-1-carbonyl)-3-carboxy-propylcarbamoyl]-2-phenyl-pyrimidin-4-yl}-3-aza-bicyclo[3.1.0]hexane-6-carboxylic acid]",3.7
3,"CCCCOC(=O)N1CCN(C(=O)[C@H](CCC(=O)O)NC(=O)c2cc(N3C[C@@H]4[C@H](C3)[C@H]4C(=O)OCC)nc(-c3ccccc3)n2)CC1 [Example 3, (1α,5α,6α)-3-{6-[(S)-1-(4-Butoxycarbonyl-piperazine-1-carbonyl)-3-carboxy-propylcarbamoyl]-2-phenyl-pyrimidin-4-yl}-3-aza-bicyclo[3.1.0]hexane-6-carboxylic acid ethyl ester]",8.7
4,"CCCCOC(=O)N1CCN(C(=O)[C@H](CCC(=O)O)NC(=O)c2cc(N3C[C@@H]4[C@H](C3)[C@@H]4C(=O)OCC)nc(-c3ccccc3)n2)CC1 [Example 4, (1α,5α,6β)-3-{6-[(S)-1-(4-Butoxycarbonyl-piperazine-1-carbonyl)-3-carboxy-propylcarbamoyl]-2-phenyl-pyrimidin-4-yl}-3-aza-bicyclo[3.1.0]hexane-6-carboxylic acid ethyl ester]",15
5,"CCCCOC(=O)N1CCN(C(=O)[C@H](CCC(=O)O)NC(=O)c2cc(N3C[C@@H]4[C@H](C3)[C@H]4NC(=O)OC(C)(C)C)nc(-c3ccccc3)n2)CC1 [Example 5, 4-((S)-2-{[6-((1α,5α,6α)-6-tert-Butoxycarbonylamino-3-aza-bicyclo[3.1.0]hex-3-yl)-2-phenyl-pyrimidine-4-carbonyl]amino}-4-carboxy-butyryl)-piperazine-1-carboxylic acid butyl ester]",6.2
6,"CCCCOC(=O)N1CCN(C(=O)[C@H](CCC(=O)O)NC(=O)c2cc(N3C[C@@H]4[C@H](C3)[C@@H]4NC(=O)OC(C)(C)C)nc(-c3ccccc3)n2)CC1 [Example 6, 4-((S)-2-{[6-((1α,5α,6β)-6-tert-Butoxycarbonylamino-3-aza-bicyclo[3.1.0]hex-3-yl)-2-phenyl-pyrimidine-4-carbonyl]-amino}-4-carboxy-butyryl)-piperazine-1-carboxylic acid butyl ester]",7.3
7,CCCCOC(=O)N1CCN(C(=O)[C@H](CCC(=O)O)NC(=O)c2cc(N3C[C@@H]4[C@@H](N)[C@@H]4C3)nc(-c3ccccc3)n2)CC1 [Example 7],7.5
8,"CCCCOC(=O)N1CCN(C(=O)[C@H](CCC(=O)O)NC(=O)c2cc(N3C[C@@H]4[C@H](N)[C@@H]4C3)nc(-c3ccccc3)n2)CC1 [Example 8, 4-((S)-2-{[6-((1α,5α,6β)-6-Amino-3-aza-bicyclo[3.1.0]hex-3-yl)-2-phenyl-pyrimidine-4-carbonyl]-amino}-4-carboxy-butyryl)-piperazine-1-carboxylic acid butyl ester]",7
9,"CCCCOC(=O)N1CCN(C(=O)[C@H](CCC(=O)O)NC(=O)c2cc(N3C[C@@H]4[C@@H](CO)[C@@H]4C3)nc(-c3ccccc3)n2)CC1 [Example 9, 4-((S)-4-Carboxy-2-{[6-((1α,5α,6α)-6-hydroxymethyl-3-aza-bicyclo[3.1.0]hex-3-yl)-2-phenyl-pyrimidine-4-carbonyl]-amino}-butyryl)-piperazine-1-carboxylic acid butyl ester]",8
10,"CCCCOC(=O)N1CCN(C(=O)[C@H](CCC(=O)O)NC(=O)c2cc(N3C[C@@H]4[C@@H](COC)[C@@H]4C3)nc(-c3ccccc3)n2)CC1 [Example 10, 4-((S)-4-Carboxy-2-{[6-((1α,5α,6α)-6-methoxymethyl-3-aza-bicyclo[3.1.0]hex-3-yl)-2-phenyl-pyrimidine-4-carbonyl]-amino}-butyryl)-piperazine-1-carboxylic acid butyl ester]",6.6
11,"CCCCOC(=O)N1CCN(C(=O)[C@@H](NC(=O)c2cc(N3C[C@@H]4[C@H](C3)[C@@H]4C(=O)O)nc(-c3ccccc3)n2)C(C)C)CC1 [Example 11, (1α,5α,6β)-3-{6-[(S)-1-(4-Butoxycarbonyl-piperazine-1-carbonyl)-2-methyl-propylcarbamoyl]-2-phenyl-pyrimidin-4-yl}-3-aza-bicyclo[3.1.0]hexane-6-carboxylic acid]",14
12,"CCCCOC(=O)N1CCN(C(=O)[C@@H](NC(=O)c2cc(N3C[C@@H]4[C@H](C3)[C@H]4C(=O)O)nc(-c3ccccc3)n2)C(C)C)CC1 [Example 12, (1α,5α,6α)-3-{6-[(S)-1-(4-Butoxycarbonyl-piperazine-1-carbonyl)-2-methyl-propylcarbamoyl]-2-phenyl-pyrimidin-4-yl}-3-aza-bicyclo[3.1.0]hexane-6-carboxylic acid]",70
13,"CCOC(=O)N1CCN(C(=O)C(NC(=O)c2cc(N3CC4C(C3)C4C(=O)O)nc(-c3ccccc3)n2)C(C)C)CC1 [Example 13, (1α,5α,6β)-3-{6-[(S)-1-(4-Ethoxycarbonyl-piperazine-1-carbonyl)-2-methyl-propylcarbamoyl]-2-phenyl-pyrimidin-4-yl}-3-aza-bicyclo[3.1.0]hexane-6-carboxylic acid]",96
14,"CCCOC(=O)N1CCN(C(=O)[C@@H](NC(=O)c2cc(N3C[C@@H]4[C@H](C3)[C@@H]4C(=O)O)nc(-c3ccccc3)n2)C(C)C)CC1 [Example 14, (1α,5α,6β)-3-{6-[(S)-2-Methyl-1-(4-propoxycarbonyl-piperazine-1-carbonyl)-propylcarbamoyl]-2-phenyl-pyrimidin-4-yl}-3-aza-bicyclo[3.1.0]hexane-6-carboxylic acid]",60
15,"CCCCCOC(=O)N1CCN(C(=O)[C@@H](NC(=O)c2cc(N3C[C@@H]4[C@H](C3)[C@@H]4C(=O)O)nc(-c3ccccc3)n2)C(C)C)CC1 [Example 15, (1α,5α,6β)-3-{6-[(S)-2-Methyl-1-(4-pentyloxycarbonyl-piperazine-1-carbonyl)-propylcarbamoyl]-2-phenyl-pyrimidin-4-yl}-3-aza-bicyclo[3.1.0]hexane-6-carboxylic acid]",15

# The remaining lines, values ahead:
row,IC50 [nM],SMILES
1,34,"CCCCCCOC(=O)N1CCN(C(=O)[C@@H](NC(=O)c2cc(N3C[C@@H]4[C@H](C3)[C@@H]4C(=O)O)nc(-c3ccccc3)n2)C(C)C)CC1 [Example 16, (1α,5α,6β)-3-{6-[(S)-1-(4-Hexyloxycarbonyl-piperazine-1-carbonyl)-2-methyl-propylcarbamoyl]-2-phenyl-pyrimidin-4-yl}-3-aza-bicyclo[3.1.0]hexane-6-carboxylic acid]"
2,13,"CCCCOC(=O)N1CCN(C(=O)[C@@H](NC(=O)c2cc(N3C[C@@H]4[C@H](C3)[C@H]4C(N)=O)nc(-c3ccccc3)n2)C(C)C)CC1 [Example 17, 4-((S)-2-{[6-((1α,5α,6α)-6-Carbamoyl-3-aza-bicyclo[3.1.0]hex-3-yl)-2-phenyl-pyrimidine-4-carbonyl]-amino}-3-methyl-butyryl)-piperazine-1-carboxylic acid butyl ester]"
3,75,"CCCCOC(=O)N1CCN(C(=O)[C@@H](NC(=O)c2cc(N3C[C@@H]4[C@@H](C#N)[C@@H]4C3)nc(-c3ccccc3)n2)C(C)C)CC1 [Example 18, 4-((S)-2-{[6-((1α,5α,6α)-6-Cyano-3-aza-bicyclo[3.1.0]hex-3-yl)-2-phenyl-pyrimidine-4-carbonyl]-amino}-3-methyl-butyryl)-piperazine-1-carboxylic acid butyl ester]"
4,12,CCCCOC(=O)N1CCN(C(=O)[C@@H](NC(=O)c2cc(N3C[C@@H]4[C@H](C3)[C@H]4c3nnn[nH]3)nc(-c3ccccc3)n2)C(C)C)CC1 [Example 19]
5,20,"CCCCOC(=O)N1CCN(C(=O)[C@@H](NC(=O)c2cc(N3C[C@@H]4[C@H](C3)[C@@H]4C(N)=O)nc(-c3ccccc3)n2)C(C)C)CC1 [Example 20, 4-((S)-2-{[6-((1α,5α,6β)-6-Carbamoyl-3-aza-bicyclo[3.1.0]hex-3-yl)-2-phenyl-pyrimidine-4-carbonyl]-amino}-3-methyl-butyryl)-piperazine-1-carboxylic acid butyl ester]"
6,10,"CCCCOC(=O)N1CCN(C(=O)[C@@H](NC(=O)c2cc(N3C[C@@H]4[C@H](C#N)[C@@H]4C3)nc(-c3ccccc3)n2)C(C)C)CC1 [Example 21, 4-((S)-2-{[6-((1α,5α,6β)-6-Cyano-3-aza-bicyclo[3.1.0]hex-3-yl)-2-phenyl-pyrimidine-4-carbonyl]-amino}-3-methyl-butyryl)-piperazine-1-carboxylic acid butyl ester]"
7,38,CCCCOC(=O)N1CCN(C(=O)[C@@H](NC(=O)c2cc(N3C[C@@H]4[C@H](C3)[C@@H]4c3nnn[nH]3)nc(-c3ccccc3)n2)C(C)C)CC1 [Example 22]
8,266,"CCCCOC(=O)N1CCN(C(=O)[C@@H](NC(=O)c2cc(N3C[C@@H]4[C@H](N)[C@@H]4C3)nc(-c3ccccc3)n2)C(C)C)CC1 [Example 23, 4-((S)-2-{[6-((1α,5α,6β)-6-Amino-3-aza-bicyclo[3.1.0]hex-3-yl)-2-phenyl-pyrimidine-4-carbonyl]-amino}-3-methyl-butyryl)-piperazine-1-carboxylic acid butyl ester]"
